According to PubChem BioAssay AID179 (DTP/NCI, 2004):
Active and inactive are the calls of the source.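 The calls were made as follows: active = compounds giving half or more protection of infected cells from virus-caused growth loss, again on retest; inactive = the rest.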

System: CEM cells HIV-1 protection, formazan growth assay
Assay: NCI AIDS Antiviral Assay
Conditions: for IC50: measured here: growth of uninfected CEM cells
Summary of the method: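 Category rules: moderately active means at least 50% protection on retest, and confirmed active means 100% protection reproducibly. The underlying data came from a formazan growth assay in HIV-1-infected CEM cells.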

## Cc1ccc(C(=O)Nc2ccc(S(=O)(=O)O)c3cc(S(=O)(=O)O)cc(S(=O)(=O)O)c23)cc1NC(=O)Nc1cc(C(=O)Nc2ccc(S(=O)(=O)O)c3cc(S(=O)(=O)O)cc(S(=O)(=O)O)c23)ccc1C
  EC50: 138 µM
  IC50: 209 µM

## CCCCCCCCCCCC(O)S(=O)(=O)O (stereo unspecified)
  EC50: > 200 µM
  IC50: 102 µM

## NC(=O)C(=CNC(=S)Nc1ccc(S(N)(=O)=O)cc1)C(N)=O
  EC50: > 200 µM
  IC50: > 200 µM

## CC(C)(C)c1cc(C(O)(C(F)(F)F)C(F)(F)F)c2c(c1)C(C(F)(F)F)(C(F)(F)F)OC(c1ccccc1)(C(C)(C)C)N2 (stereo unspecified)
  outcome: inactive

## COc1cc(C)c(C(=O)/C=C/c2cc(OC)c(O)c(OC)c2)cc1O
  EC50: > 275 µM
  IC50: 12.9 µM

## CCC[CH2][Sn]([CH2]CCC)([O]C(=O)c1ccc(C)c(N)c1)[O]C(=O)c1ccc(C)c(N)c1
  EC50: > 18.6 µM
  IC50: 0.457 µM

## CCOC(=O)Cc1nc2sc(S(N)(=O)=O)nn2c1Br
  EC50: > 200 µM
  IC50: 10 µM

## CCOC(=O)C(NC(=O)CC)(C(F)(F)F)P(=O)(OCC)OCC (stereo unspecified)
  EC50: > 200 µM
  IC50: > 200 µM

## O=c1oc2c(-c3ccccc3)n[nH]c(=O)c2c2c1CCCC2
  EC50: > 170 µM
  IC50: > 170 µM

## O=C1NC(=O)C(C(=O)Nc2ccc(Cl)cc2)c2ccccc21 (stereo unspecified)
  EC50: > 200 µM
  IC50: 129 µM

## CN(C)C=C1C(=O)c2ccccc2C1=O
  EC50: > 35.5 µM
  IC50: > 35.5 µM

## CCOC(=O)C(C#N)C1=CC(=O)C(=O)c2ccc(O)cc21 (stereo unspecified)
  EC50: > 457 µM
  IC50: 209 µM

## CN1CN(c2ccccc2)C2(CCNCC2)C1=O
  EC50: > 200 µM
  IC50: > 200 µM

## COc1ccccc1Nc1nc(N)nc(N)c1N
  EC50: > 200 µM
  IC50: 36.3 µM

## COc1cc2c3c(c1)[nH]c(=S)n3C(=O)CCS2
  EC50: > 200 µM
  IC50: > 100 µM

## C/C=C/C=Nc1c(C#N)c2n(c1C(=O)Nc1ccc(C)cc1)CCC2
  EC50: > 50.1 µM
  IC50: > 50.1 µM

## COC(=N)C1(C#N)NC(c2ccsc2)C(C#N)(C#N)NC1c1ccsc1 (stereo unspecified)
  EC50: > 200 µM
  IC50: 56.2 µM

## CCCCCCCCCCC#CCC(=O)SCCNC(=O)CCNC(=O)[C@@H](O)C(C)(C)COP(=O)(O)OP(=O)(O)OCC1OC(n2cnc3c(N)ncnc32)C(O)C1OP(=O)(O)O (stereo partly specified)
  outcome: inactive

## Brc1ccc2c(-c3csc(-c4c[nH]c5ccccc45)n3)c[nH]c2c1
  EC50: > 200 µM
  IC50: 10.7 µM

## CCOC(=O)C(=[N+]=[N-])C(=O)CN1C(=O)c2ccccc2C1=O
  EC50: > 437 µM
  IC50: > 437 µM

## C/C(CC(=O)Nc1ccc(Cl)cc1)=N\NC(=O)C[n+]1ccccc1
  EC50: > 49 µM
  IC50: > 49 µM

## N=C(N)C1CN(CC=O)C(=O)NC1=O (stereo unspecified)
  EC50: > 200 µM
  IC50: > 200 µM

## CC(C)(c1ccccc1)c1ccc(Oc2ccc(C#N)c(C#N)c2)cc1
  EC50: > 29.5 µM
  IC50: 28.8 µM

## CNC(=O)CN(C)C(=O)CCC(=O)N(C)C
  EC50: > 200 µM
  IC50: > 200 µM

## Cc1c(N2CCOCC2)nc2ccc(Cl)cc2c1-c1ccccc1
  EC50: > 4.27 µM
  IC50: > 4.27 µM

## C=CC1(c2ccc(Br)cc2)OCCCO1
  EC50: > 200 µM
  IC50: > 200 µM

## N#CC1=CNc2sccc2S1(=O)=O
  EC50: > 200 µM
  IC50: > 200 µM

## COc1ccc(/C=C2\SC(c3ccc(OC)cc3)N(NC(=O)Cc3ccccc3)C2=O)cc1 (stereo unspecified)
  EC50: > 15.5 µM
  IC50: > 15.5 µM

## O=C(Nc1ccc(Cl)c(C(F)(F)F)c1)C(=O)C(C(=O)/C=C/c1ccccc1)C1OC(=O)c2ccccc21 (stereo unspecified)
  EC50: > 129 µM
  IC50: 20.9 µM

## Cc1c2c(C#N)nccc2c(C)c2c1c1ccccc1n2Cc1ccccc1
  outcome: inactive

## Cn1c(=O)c(-c2ccccc2)c(O)c2ccccc21
  EC50: > 200 µM
  IC50: > 200 µM

## O=C1C2C3C4C1C1C2[C@H](OCc2ccccc2)C3C1[C@H]4OCc1ccccc1 (stereo partly specified)
  EC50: > 200 µM
  IC50: 42.7 µM

## CC1(C)CNC[C@@](C)(O)C(=O)[N-]C(C)(C)CNC[C@@](C)(O)C(=O)[N-]1.[Ni+2]
  EC50: > 200 µM
  IC50: 72.4 µM

## O=C(O)CCC1(Br)CCCCC(Br)C1=O (stereo unspecified)
  EC50: > 724 µM
  IC50: 245 µM

## O=[N+]([O-])c1cc(SSc2ccc(Cl)c([N+](=O)[O-])c2)ccc1Cl
  EC50: > 60.3 µM
  IC50: 13.2 µM

## CC(C)=CCC/C(C)=C/CCC1(C)C=Cc2c(c3ccccc3oc2=O)O1 (stereo unspecified)
  outcome: inactive

## C/C(=N\NC(N)=S)c1ccc2c(c1)OCO2
  outcome: inactive

## CCOP(=O)(Cc1nc(C#N)c(N)o1)OCC
  EC50: > 200 µM
  IC50: > 200 µM

## Oc1ccc(-c2nc3ccccc3s2)c(O)c1
  EC50: > 148 µM
  IC50: 27.5 µM

## Cc1cc(=O)[nH]c2cc(NC(=O)C(C)NC(=O)C(C)NC(=O)C(C)NC(=O)OC(C)(C)C)ccc12 (stereo unspecified)
  EC50: > 200 µM
  IC50: > 200 µM

## N[C@@H](C[S-])C(=O)O.O=[N+]([O-])O.[Ag+]
  EC50: > 200 µM
  IC50: 126 µM

## CSCCC(NC(=O)c1ccccc1C(=O)O)C(=O)O (stereo unspecified)
  EC50: > 200 µM
  IC50: > 200 µM

## CCC(=O)NI1OC(=O)c2ccccc21
  EC50: > 200 µM
  IC50: 81.3 µM

## COc1ccc(OC)c(NC(=O)C(=O)CC(=O)c2sc(-n3nc(-c4ccccc4)cc3-c3ccccc3)nc2C)c1
  EC50: > 437 µM
  IC50: 363 µM

## CN(C)c1ccc(/C=C(\C#N)C(N)=C(C#N)C#N)cc1
  EC50: 132 µM
  IC50: > 200 µM

## O=S(=O)(O)C(C(I)I)S(=O)(=O)O
  EC50: > 200 µM
  IC50: > 200 µM

## O=[N+]([O-])c1ccc(N2N=C(c3ccc4ccccc4c3O)CC2c2ccc(Cl)cc2Cl)c([N+](=O)[O-])c1 (stereo unspecified)
  EC50: > 200 µM
  IC50: 42.7 µM

## NC1Cc2ccccc2OC1=O (stereo unspecified)
  EC50: > 200 µM
  IC50: > 200 µM

## CCOC(=O)c1c(-c2ccccc2)c(OC)cn1C
  EC50: > 200 µM
  IC50: > 200 µM

## C(=Nc1ccc(/C=C\c2ccnc3ccccc23)cc1)Nc1ccc(/C=C\c2ccnc3ccccc23)cc1
  EC50: > 7.59 µM
  IC50: 5.62 µM

## COc1ccc(N(C)C(=O)N(C)c2ccc([N+](=O)[O-])cc2)cc1
  EC50: > 200 µM
  IC50: 9.33 µM

## Oc1cccc(/C=C/c2ccncc2)c1
  EC50: > 36.3 µM
  IC50: > 36.3 µM

## COC(=O)C12CC(C3CC31)C1CC12 (stereo unspecified)
  EC50: > 251 µM
  IC50: > 251 µM

## c1ccc([P+](Cc2ccc3c(c2)OCO3)(c2ccccc2)c2ccccc2)cc1
  EC50: > 200 µM
  IC50: 3.39 µM

## O=C(/C=C\c1cccc2ccccc12)c1ccc(F)cc1
  EC50: > 7.24 µM
  IC50: > 7.24 µM

## COCCCN1CC(=O)N2Cc3ccccc3CN2C(=O)C1
  outcome: inactive
  IC50: > 200 µM

## C[C@]12CCC(=O)C=C1CC[C@H]1[C@@H]3CC[C@@]4(OCC4=O)[C@@]3(C)C[C@H](O)[C@@]12F
  EC50: > 123 µM
  IC50: > 123 µM

## Clc1ccc(C(=C=C(c2ccccc2)c2ccccc2)c2ccc(Cl)cc2)cc1
  EC50: > 22.9 µM
  IC50: > 22.9 µM

## OC12c3ccccc3C1CCCCCCCCCC21OCCCO1 (stereo unspecified)
  EC50: > 200 µM
  IC50: > 200 µM

## C[C@@H]1CC[C@@]2(OC1)O[C@H]1C[C@H]3[C@@H]4CC[C@H]5C[C@@H](OC6OC(CO)C(OC7OC(CO)C(O)C(OC8OCC(O)C(O)C8O)C7OC7OC(CO)C(O)C(O)C7O)C(O)C6O)CC[C@]5(C)[C@H]4CC[C@]3(C)[C@H]1[C@@H]2C (stereo partly specified)
  EC50: > 100 µM
  IC50: 6.17 µM

## C/C(CC(=O)CCC(=O)Nc1cccc(C(F)(F)F)c1)=N\NC(=O)NN
  EC50: > 10 µM
  IC50: > 10 µM

## Cc1cc(N(CCC#N)S(=O)(=O)c2ccccc2)ccc1C=Nc1cccc(C(=O)O)c1
  EC50: > 151 µM
  IC50: > 151 µM

## CC(=O)C1Cn2c(=O)c3cc4ccccc4cc3c(=O)n2C=C1C (stereo unspecified)
  EC50: > 112 µM
  IC50: > 112 µM

## CC(=O)Nc1ccc(S(=O)(=O)N/N=C(\C)CN2C(=O)c3ccccc3C2=O)cc1
  EC50: > 229 µM
  IC50: > 229 µM

## CN(C)Cc1cc(N=Nc2ccc(Cl)cc2)ccc1OC(=O)c1ccccc1
  EC50: > 200 µM
  IC50: 14.5 µM

## CCOC(=O)C1C(c2ccccc2)C2(C#N)C(=N)OC1(C)C2(C#N)C#N (stereo unspecified)
  EC50: > 200 µM
  IC50: 28.8 µM

## CC(=O)O/C=C\OC1CCCC1
  EC50: > 200 µM
  IC50: > 200 µM

## Cc1[nH]c(NC(=O)C(=O)O)c(C#N)c1C
  EC50: > 200 µM
  IC50: > 200 µM

## NC1CC(=O)c2c1sc(Cl)c2Cl (stereo unspecified)
  outcome: inactive

## Cc1ccccc1NC(=O)C(=O)CC(=O)C1CCOC1=O (stereo unspecified)
  outcome: inactive

## O=C1C(=O)N(c2ccc(Cl)c(Cl)c2)C(=O)C(=O)C1c1nc2ccccc2o1
  outcome: inactive

## COC(=O)C1NC(C)(C(=O)OC)C2C(=O)NC(=O)C12 (stereo unspecified)
  EC50: > 933 µM
  IC50: > 933 µM

## CCOC(=O)CSc1c(C(=O)OCC)c(=O)n(-c2ccccc2)c(=S)n1-c1ccccc1
  EC50: > 200 µM
  IC50: 31.6 µM

## O=C1OC(OCC#CCOC2OC(=O)C(Cl)=C2Cl)C(Cl)=C1Cl (stereo unspecified)
  EC50: > 200 µM
  IC50: 1.7 µM

## O=C1NC(Cc2ccc(O)cc2)C(=O)N2CCCC12 (stereo unspecified)
  EC50: > 955 µM
  IC50: > 955 µM

## Cc1cccc(C)c1NC(=O)C(=O)C(c1ccccc1Cl)S(=O)(=O)Cc1ccccc1Cl (stereo unspecified)
  EC50: 151 µM
  IC50: > 200 µM

## Cc1cn(CC2=NCCN2)c(=O)[nH]c1=O
  EC50: > 200 µM
  IC50: > 200 µM

## c1cnc2c(c1)CCc1cc3cccnc3nc1-2
  EC50: > 200 µM
  IC50: 186 µM

## CC(=O)Oc1ccc2c(oc(=O)c3nc(C)oc32)c1C
  EC50: > 200 µM
  IC50: 145 µM

## Clc1cccc(N=C/C=C/Nc2cccc(Cl)c2)c1
  EC50: > 200 µM
  IC50: 30.9 µM

## COc1ccc(S(=O)(=O)c2ccccc2[N+](=O)[O-])cc1
  outcome: active

## CON(C)c1nc(Cl)nc(N(C)OC)n1
  EC50: > 200 µM
  IC50: > 200 µM

## NC(CSSCC(N)=NCCCCCSC12CC3CC(CC(C3)C1)C2)=NCCCCCSC12CC3CC(CC(C3)C1)C2
  EC50: > 200 µM
  IC50: 6.17 µM

## O=C(O)CCC(=O)NC(c1ccccc1)c1ccccc1
  EC50: > 200 µM
  IC50: > 200 µM

## Clc1cc2nc[nH]c2cc1Cl
  EC50: > 269 µM
  IC50: 141 µM

## Cc1cc(S(=O)(=O)Nc2n[nH]c(Nc3ccccc3)n2)c(SSc2cc(Cl)c(C)cc2S(=O)(=O)Nc2n[nH]c(Nc3ccccc3)n2)cc1Cl
  EC50: 83.2 µM
  IC50: 95.5 µM

## CCCCCC(/C=C/C1CCC(=O)C1CC#C[Si](C)(C)C)OCc1ccccc1 (stereo unspecified)
  EC50: > 200 µM
  IC50: 27.5 µM

## CCOC(=O)C(NC(=O)Nc1ccc(Cl)cc1)(OC)C(F)(F)F (stereo unspecified)
  outcome: inactive
